Laboratory results as given in patent publication US8518953B2, “Aminopyrimidines useful as inhibitors of protein kinases” (Vertex Pharmaceuticals Incorporated, priority 2007, dated 2013).

Assays:
[1] = test system: E16 rat hippocampal or cortical neurons; assay: Axonal Branching Assay; type: cell-based
Protocol: Compounds are tested for the ability to enhance axonal branching in E16 rat hippocampal or cortical neurons. 1 mg/ml stock of PDL is diluted into 100 μg/ml in DI water. The glass coverslips are coated for at least 1 hour at 37° C. prior to doing the dissection. PDL is aspirated and the plates are rinsed with PBS and air-dried in hood. Cortical or hippocampal lobes are combined with 9 mL of Base media (Neurobasal+Pen/Strep) and put on ice. 1 mL of 10× trypsin solution is added and the mixture is swirled gently. The tissue is then digested via incubation in a 37° C. waterbath for 20 minutes. After 20 minutes, 10 μl/ml DNase (100 μL DNase) is added and the mixture is incubated for another 5 minutes. The cells are spun at 1000 rpm for 1 minute. The enzyme solution is then removed without removing any of the brain fragments sitting on the bottom. The solid is washed 3 times with Wash media (Neurobasal+10% and Pen/Strep). […] The cells are counted in a hemacytometer and seeded at 5000-10000 cells/well in a 24 well plate with glass coverslip inserts coated with PDL. […] Images are captured at 10× and 20× on an upright microscope and axonal branching is determined by quantification of area under threshold fluorescence of neurofilament Alexa 488 per cell. Dendritic branching is determined by quantification of area under threshold fluorescence of MAP2 Alexa 568 per cell. […]

GSK3β TYR 216 = target: T1, GSK3β TYR 216 (Homo sapiens, UniProt P49841); assay: GSK3β p-TYR Inhibition Assay (western blotting of Jurkat cells); type: cell-based; conditions: western blot, read-out: GSK3b pTYR 216: IC50
T1 construct: western blotting of Jurkat cells dosed with the compounds; endogenous in cells; host or cells: Jurkat cells
T1 sequence (P49841 whole entry): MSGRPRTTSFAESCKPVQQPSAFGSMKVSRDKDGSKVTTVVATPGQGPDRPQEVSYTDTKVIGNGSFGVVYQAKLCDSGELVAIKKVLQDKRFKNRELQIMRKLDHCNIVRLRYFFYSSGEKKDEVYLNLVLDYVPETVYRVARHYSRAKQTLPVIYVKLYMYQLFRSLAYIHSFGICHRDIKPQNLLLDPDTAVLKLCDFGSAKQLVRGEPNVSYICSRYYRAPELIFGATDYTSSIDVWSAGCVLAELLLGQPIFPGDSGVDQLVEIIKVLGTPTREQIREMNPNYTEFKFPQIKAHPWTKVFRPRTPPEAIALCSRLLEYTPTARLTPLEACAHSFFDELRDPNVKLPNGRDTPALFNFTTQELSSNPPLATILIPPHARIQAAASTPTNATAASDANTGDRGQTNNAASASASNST
Protocol: Compounds are screened for their ability to inhibit the phosphorylation of tyrosine (TYR) residues through the use of western blotting of Jurkat cells dosed with the compounds. The phosphorylation of the specific TYR residues tested are GSK3α TYR 279 and GSK3β TYR 216.
Jurkat cells are seeded at a density of 2×10^5 cells/well in a 12 well dish in starvation media (RPMI+1% FBS+P/S). Following starvation for 16 hours, the compound is dosed into each well at a final DMSO concentration of 0.3% and cells are incubated o/n at 37° C. 5% CO2. The next day, cells are spun down at 1500 rpm, washed with PBS, and lysed in 100 uL Laemli sample buffer with β-mercaptoethanol.
15 microliters (uL) of cell lysates are loaded onto a 10% tris-glycine gel and run at 120 v for 2 hours or until dye front runs off of the gel. The protein is then transferred onto a PVDF membrane at 100 v for 60 min. PBST (PBS containing 0.1% Tween 20, such as 1 ml Tween per 1 L of PBS) is then made up and used for all washes and antibody incubations. The blot is blocked in 5% nonfat milk PBST for one hour.
The primary antibody (GSK-3α/β pTYR 279/216 at 1:1000 dilution Upstate cat#05-413) is then added in […] PBST overnight at 4° C. with gentle rocking. The blot is then washed in PBST for 5 min. This is then repeated 4 times. […]

IC50 (GSK3β TYR 216): 3 nM
Compound: Cc1nc(-c2ccccc2Cl)nc(Nc2n[nH]c3ncc(F)cc23)c1C [Compound I-1, N-(2-(2-chlorophenyl)-5,6-dimethylpyrimidin-4-yl)-5-fluoro-1H-pyrazolo[3,4-b]pyridin-3-amine]
axonal and dendritic branching ([1]; 10 nM, 7 days): increased axonal and dendritic branching
axon growth ([1]; concentrations that have been shown to induce β-catenin): axon growth was inhibited
